According to patent publication US20240196899A1, “PESTICIDAL MIXTURES” (priority 2021, published 2024):

How the values were obtained:
[1] = system: Spodoptera littoralis larvae; test: Larval mortality of S. littoralis fed on treated castor bean leaves (tank mix novaluron + methoxyfenozide), Colby synergy; type: in vivo; details: Table 1, 0.01 mg a.i./L of each active
Description: (§1) Colby's method is used to determine if synergy exists for a combination of active ingredients. According to Colby, the expected action (E) of active ingredients A+B is:
(§2) [formula] • where E=expected efficacy, A and B=the efficacy of two active ingredients A and B at a given dose.
(§3) When the percentage of control observed (O) for the combination is greater than the expected (E) percentage, there is a synergistic effect. The synergism ratio (R) is calculated as the ratio between the […].
A representative experiment was conducted to evaluate the insecticidal control of novaluron, a compound II, namely methoxyfenozide as well as a mixture of novaluron and methoxyfenozide against Spodoptera littoralis larvae.
(§4) The experiments were conducted by applying commercially available compositions of Novaluron (Rimon®) and methoxyfenozide (Runner®) alone or together. The compositions were diluted with water to the stated concentration of the active compound.
(§5) The following active ingredients and their mixtures were evaluated: • Novaluron: 0.01 mg a.i./liter • Methoxyfenozide: 0.01 mg a.i./liter • Novaluron+Methoxyfenozide 0.01 mg a.i./liter+0.01 mg a.i./liter
(§6) To evaluate the insecticidal control of novaluron and methoxyfenozide alone and in a binary mixture, castor bean leaves were treated with the above listed treatments. The treated leaves were exposed for 4-day feeding to 3rd-instar Spodoptera littoralis and the larvae were exposed for additional 4 days on untreated leaves. Larval mortality was determined at day 4 and 8. The treatments were composed of 3-5 replicates of 10 larvae each.

[2] = system: Spodoptera littoralis larvae; test: Larval weight gain (LWG) of S. littoralis on treated castor bean leaves; type: in vivo; details: Table 3
Description: as §4, §5, §6
Larval weight gain (LWG) was also measured in order to determine the effectiveness of the mixture of novaluron and methoxyfenozide when compared to the solo application of novaluron and methoxyfenozide.
Table 3 below summarizes the larval weight gain (LWG) (compared to the control), that was determined 4 days after treatment for the mixture of novaluron and methoxyfenozide.

T. absoluta = test: Insecticidal % control against T. absoluta, Colby synergy; type: in vivo, Tuta absoluta; details: 72 hours after treatment
Description: as §1, §2, §3
(§7) The insecticidal compounds A (Novaluron) and B (mix partner) are formulated as equivalent suspension concentrates to eliminate the effects of differing formulation inerts on biological activity. Efficacy of the insecticidal compositions is evaluated with reference to a scale of 0% to 100% in comparison with untreated control plots. 0 means no damage and 100 means complete destruction of the harmful pests.
(§8) Likewise following experimentations were done on other mixtures of novaluron on various pests, the result of which are summarized in the below tables: […]

F. occidentalis = test: Insecticidal % control against F. occidentalis, Colby synergy; type: in vivo, Frankliniella occidentalis
Description: as §1, §2, §3, §7, §8

S. frugiperda = test: Insecticidal % control against S. frugiperda, Colby synergy; type: in vivo, Spodoptera frugiperda; details: 120 hours after treatment
Description: as §1, §2, §3, §7, §8

[3] = system: Cotton Leafworm, S. littoralis; test: Insecticidal % control against Cotton Leafworm, S. littoralis, Colby synergy; type: in vivo, Spodoptera littoralis; details: 72 hours after treatment
Description: as §1, §2, §3, §7, §8

M. persicae = test: Insecticidal % control against M. persicae, Colby synergy; type: in vivo, Myzus persicae
Description: as §1, §2, §3, §7, §8

T. urticae = test: Insecticidal % control against T. urticae, Colby synergy; type: in vivo, Tetranychus urticae
Description: as §1, §2, §3, §7, §8

B. tabaci = test: Insecticidal % control against B. tabaci, Colby synergy; type: in vivo, Bemisia tabaci; details: Table 7, 72 hours after treatment
Description: as §1, §2, §3, §7, §8

A. gossypii = test: Insecticidal % control against A. gossypii, Colby synergy; type: in vivo, Aphis gossypii; details: 96 hours after treatment
Description: as §1, §2, §3, §7, §8

H. halys = test: Insecticidal % control against H. halys, Colby synergy; type: in vivo, Halyomorpha halys; details: Table 20 B; 144 hours after treatment; 50 ppm
Description: as §1, §2, §3, §7, §8

## O=C(NC(=O)c1c(F)cccc1F)Nc1ccc(OC(F)(F)C(F)OC(F)(F)F)c(Cl)c1 (single isomer, unassigned; (+)) [Novaluron, (+)-I-[3-chloro-4-(1,1,2-trifluoro-2-trifluoromethoxyethoxy)phenyl]-3-(2,6-difluorobenzoyl) urea]
[1]; 3rd-instar larvae, 4-day feeding on treated leaves, day 4
  Larval mortality, % (observed) 4 d: 3.5%
[1]; 4 days on treated then 4 days on untreated leaves, day 8
  Larval mortality, % (observed) 8 d: 20%
[2]; 4 days after treatment, 0.01 mg a.i./L of each active
  LWG % rel. Control: 108 % rel. Control
[2]; applied alone
  effect on the weight gain of the Spodoptera littoralis larvae: neither novaluron nor methoxyfenozide alone have any effect on the weight gain
T. absoluta; Table 2, 300 ppm
  Observed % control (O): 0%
T. absoluta; Table 5 C, 0.1 ppm
  Observed % control (O): 16.7%
T. absoluta; Table 5 C, 1 ppm
  Observed % control (O): 16.7%
T. absoluta; Table 5 C, 300 ppm
  Observed % control (O): 16.7%
F. occidentalis; Table 4 A, 48 hours after treatment, 5.3 ppm
  Observed % control (O): 14.0%
F. occidentalis; Table 4 B, 72 hours after treatment, 5.3 ppm
  Observed % control (O): 20.0%
F. occidentalis; Table 4 C, 7 days after treatment, 5.3 ppm
  Observed % control (O): 40.0%
F. occidentalis; Table 5 D, 48 hours after treatment, 3.5 ppm
  Observed % control (O): 4.0%
F. occidentalis; Table 5 E, 72 hours after treatment, 3.5 ppm
  Observed % control (O): 4.0%
F. occidentalis; Table 5 F, 7 days after treatment, 3.5 ppm
  Observed % control (O): 8.0%
F. occidentalis; Table 18 B, 72 hours after treatment, 5 ppm
  Observed % control (O): 10.0%
F. occidentalis; Table 18 B, 72 hours after treatment, 500 ppm
  Observed % control (O): 10.0%
F. occidentalis; Table 20 C, 48 hours after treatment, 1 ppm
  Observed % control (O): 16.0%
F. occidentalis; Table 20 D, 72 hours after treatment, 1 ppm
  Observed % control (O): 50.0%
F. occidentalis; Table 20 D, 72 hours after treatment, 100 ppm
  Observed % control (O): 50.0%
F. occidentalis; Table 20 E, 7 days after treatment, 1 ppm
  Observed % control (O): 74.0%
F. occidentalis; Table 20 E, 7 days after treatment, 100 ppm
  Observed % control (O): 84.0%
S. frugiperda; Table 5 A, 0.01 ppm
  Observed % control (O): 27%
S. frugiperda; Table 5 A, 0.05 ppm
  Observed % control (O): 40%
S. frugiperda; Table 9, 0.01 ppm
  Observed % control (O): 27%
S. frugiperda; Table 9, 0.025 ppm
  Observed % control (O): 30%
S. frugiperda; Table 10 A, 0.025 ppm
  Observed % control (O): 30%
[3]; Table 5 B, 0.02 ppm
  Observed % control (O): 0%
[3]; Table 8, 12 ppm
  Observed % control (O): 75%
[3]; Table 10 B, 0.02 ppm
  Observed % control (O): 30%
[3]; Table 11, 12 ppm
  Observed % control (O): 25%
[3]; Table 12, 12 ppm
  Observed % control (O): 75%
[3]; Table 13, 12 ppm
  Observed % control (O): 75%
[3]; Table 16, 0.04 ppm
  Observed % control (O): 73%
[3]; Table 20 A, 0.02 ppm
  Observed % control (O): 0%
[3]; Table 20 A, 0.2 ppm
  Observed % control (O): 5%
[3]; Table 21, 12 ppm
  Observed % control (O): 12.5%
M. persicae; Table 6 A, 72 hours after treatment, 1 ppm
  Observed % control (O): 34%
M. persicae; Table 6 B, 7 days after treatment, 1 ppm
  Observed % control (O): 38.8%
M. persicae; Table 15 A, 48 hours after treatment, 50 ppm
  Observed % control (O): 14%
M. persicae; Table 15 B, 72 hours after treatment, 0.5 ppm
  Observed % control (O): 30%
M. persicae; Table 15 B, 72 hours after treatment, 50 ppm
  Observed % control (O): 44%
M. persicae; Table 17 A, 72 hours after treatment, 0.2 ppm
  Observed % control (O): 56%
M. persicae; Table 17 B, 7 days after treatment, 0.2 ppm
  Observed % control (O): 62.5%
M. persicae; Table 19 B, 7 days after treatment, 500 ppm
  Observed % control (O): 72.9%
T. urticae; Table 6 C, 48 hours after treatment, 6 ppm
  Observed % control (O): 0%
T. urticae; Table 6 D, 72 hours after treatment, 6 ppm
  Observed % control (O): 0%
T. urticae; Table 6 E, 7 days after treatment, 6 ppm
  Observed % control (O): 6.1%
T. urticae; Table 14 A, 48 hours after treatment, 2.4 ppm
  Observed % control (O): 12%
T. urticae; Table 14 A, 48 hours after treatment, 120 ppm
  Observed % control (O): 8%
T. urticae; Table 14 B, 72 hours after treatment, 2.4 ppm
  Observed % control (O): 13%
T. urticae; Table 14 B, 72 hours after treatment, 120 ppm
  Observed % control (O): 10%
T. urticae; Table 14 C, 7 days after treatment, 2.4 ppm
  Observed % control (O): 15%
T. urticae; Table 14 C, 7 days after treatment, 120 ppm
  Observed % control (O): 17%
B. tabaci; 7 ppm
  Observed % control (O): 23.1%
B. tabaci; 35 ppm
  Observed % control (O): 25.2%
A. gossypii; Table 18 A, 10 ppm
  Observed % control (O): 16.2%
A. gossypii; Table 19 A, 100 ppm
  Observed % control (O): 16.5%
H. halys
  Observed % control (O): 12.5%
